One may read the EC50 as the concentration at which the effect is half-maximal.

In assay [1] the test system is PVY. Briefly: Anti-PVY protective activity, half-leaf method. The conditions noted are these: Potato virus Y, in Chenopodium amaranticolor, 120 h, read-out: Protective effect (%).
Procedure: (§1) Owing to its non-host resistance to PVY, Chenopodium amaranticolor develops a hypersensitive response (HR) within 48–72 hours post-inoculation, producing sharply delimited chlorotic or necrotic local lesions on the inoculated leaves. The number of lesions correlates linearly and positively with virus titre, thereby serving as a quantitative indicator of viral virulence and of the inactivating efficacy of test compounds. The PVY viral extract was rubbed onto the surface of Nicotiana tabacum K326 leaves. After the characteristic symptoms of leaf wrinkling and inward curling appeared, the leaves were harvested and stored at -80°C, then purified according to previously reported methods.[50]^,[51]^,[52] Host leaves were ground to a fine powder in liquid nitrogen, followed by homogenization on ice in 0.5 M phosphate buffer. An equal volume of chloroform:n-butanol (1:1, v/v) corresponding to 10% of the total buffer volume was added, and the mixture was further homogenized on ice. After centrifugation at 10,000g for 20 minutes (4°C), the supernatant was collected as the crude PVY extract. Using 4–5-leaf-stage Chenopodium amaranticolor maintained under optimal growth conditions, a bioassay was conducted with two plants per treatment to systematically evaluate the curative, protective, and inactivating efficacy of the target compound against PVY.[53] […] Each compound was evaluated in three replicates, and the average value was calculated.
In contrast to the antiviral therapeutic activity, the leaves were first treated with the drug solution. A 500 μg/mL drug solution was applied to the right side of the leaves, with the left side serving as a control and treated with a 1% Tween 80 solution. After the leaves had dried under natural conditions, they were placed in a greenhouse for 24 hours before inoculation by rubbing with carborundum, following the same procedures as those for curative activity. After treatment, the plants were maintained in a greenhouse, and the number of local lesions on the inoculated leaves was recorded approximately 5 days.
The subject of assay [2] is PVY. Description: Anti-PVY inactivating activity, half-leaf method. As to conditions: Potato virus Y, in Chenopodium amaranticolor; for pest or weed control at 500 µg/mL: 120 h; for EC50: read-out: Inactivating effect EC50.
Procedure: as §1
Two different dilutions of the virus solution (600-fold and 1200-fold) were prepared, along with a 1000 μg/mL drug solution. The drug solution was mixed with the 600-fold diluted virus solution on ice and incubated for 30 minutes. During the incubation period, the left side of the leaves was treated with a 1200-fold diluted virus solution. After the incubation was completed, the mixed system of drug and virus is inoculated on the right side of the leaf. After waiting for the infection to be completed, the carborundum on the leaf surface was washed off with running water, and the plants were then cultivated in a greenhouse. The number of dead spots on the leaves was counted after approximately 5 days.
The test system of assay [3] is PVY. Description: Anti-PVY curative activity, half-leaf method. The conditions noted are these: Potato virus Y, in Chenopodium amaranticolor, 120 h, read-out: Curative effect (%).
Procedure: as §1
Chenopodium amaranticolor was selected as the dead spot host. Excess leaves were first trimmed off, and a uniform layer of carborundum was applied to the leaf surface. The leaves were then inoculated by rubbing with a 1200-fold diluted virus solution. After more than an hour, the carborundum on the leaf surface was washed off with running water, and a 500 μg/mL drug solution was prepared. […] The treated plants were cultivated in a greenhouse for observation, and the number of dead spots on the leaves was counted after approximately 5 days.
Setting [4] is: read-out: Inactivating effect (%), 500 μg/mL, host Chenopodium amaranticolor, average of three replicates.

The structures appear in SMILES notation. Converted amounts (≈) assume the structure as drawn.

As for `COc1ccc(/C=C2\Oc3cc(OCC(=O)NS(=O)(=O)c4ccc(Cl)cc4)ccc3C2=O)cc1` [D1], the pest or weed control at 500 µg/mL in the assay with PVY [1] was 44.8 ± 3.8%; with PVY [2] (setting [4]), 50 ± 3.5%; with PVY [3] it was 38.7 ± 3.7%. The EC50 in the assay with PVY [2] turned out to be 307 ± 13.7 µg/mL (≈ 614 µM).
`COc1ccc(/C=C2\Oc3cc(OCC(=O)NS(=O)(=O)c4ccccc4)ccc3C2=O)cc1` [D2]: the pest or weed control at 500 µg/mL was 36.9 ± 2.7% in the assay on PVY [1], 60 to 80% in the assay with PVY [2] (setting [4]) and 41.4 ± 2.9% with PVY [3].
The like results for `COc1ccccc1/C=C1\Oc2cc(OCC(=O)NS(=O)(=O)c3ccc(Cl)cc3)ccc2C1=O` [D3] were, in that order, 36.9 ± 2.9%, 60 to 80% and 40.1 ± 3.8%.
The like results for `COc1ccccc1/C=C1\Oc2cc(OCC(=O)NS(=O)(=O)c3ccccc3)ccc2C1=O` [D4] were, in that order, 33.8 ± 1%, 60 to 80% and 43.1 ± 2.9%.
The like results for `COc1cccc(/C=C2\Oc3cc(OCC(=O)NS(=O)(=O)c4ccc(Cl)cc4)ccc3C2=O)c1` [D5] were, in that order, 37.6 ± 4.8%, 60 to 80% and 41.7 ± 3.5%.
In the case of `COc1cccc(/C=C2\Oc3cc(OCC(=O)NS(=O)(=O)c4ccccc4)ccc3C2=O)c1` [D6], the values for the pest or weed control at 500 µg/mL in the assay with PVY [1], in the assay with PVY [2] (setting [4]) and in the assay on PVY [3] were 40.5 ± 0.8%, 58.8 ± 4.5% and 36.5 ± 2.9%, respectively.
The corresponding values for `COc1ccc(/C=C2\Oc3cc(OCC(=O)NS(=O)(=O)c4ccc(F)cc4)ccc3C2=O)c(OC)c1` [D9] are 35.6 ± 2.5%, 58.1 ± 5.4% and 45.7 ± 3.3%.
The corresponding values for `COc1ccc(/C=C2\Oc3cc(OCC(=O)NS(=O)(=O)c4ccc(F)cc4)ccc3C2=O)cc1` [D10] are 33.9 ± 4%, 43.7 ± 5% and 24.4 ± 1.9%.
The like results for `COc1cccc(/C=C2\Oc3cc(OCC(=O)NS(=O)(=O)c4ccc(F)cc4)ccc3C2=O)c1` [D11] were, in that order, 42.7 ± 2.8%, 52.9 ± 2.8% and 40.6 ± 2%.
Turning to `COc1ccccc1/C=C1\Oc2cc(OCC(=O)NS(=O)(=O)c3ccc(F)cc3)ccc2C1=O` [D12], the pest or weed control at 500 µg/mL was 44.5 ± 1.5% in the assay with PVY [1], 59.4 ± 3.6% in the assay on PVY [2] (setting [4]) and 34.1 ± 3.5% in the assay on PVY [3].
The like results for `COc1ccc(/C=C2\Oc3cc(OCC(=O)NS(=O)(=O)c4ccc(Br)cc4)ccc3C2=O)c(OC)c1` [D14] were, in that order, 37.9 ± 4.4%, 49.2 ± 4.2% and 29.8 ± 4.8%.
The like results for `COc1ccccc1/C=C1\Oc2cc(OCC(=O)NS(=O)(=O)c3ccc(Br)cc3)ccc2C1=O` [D15] were, in that order, 39.3 ± 2.9%, 53.4 ± 4.2% and 37.1 ± 0.9%.
With `COc1cccc(/C=C2\Oc3cc(OCC(=O)NS(=O)(=O)c4ccc(Br)cc4)ccc3C2=O)c1` [D16], the pest or weed control at 500 µg/mL in the assay with PVY [1] came to 36.9 ± 2.4%; in the assay on PVY [2] (setting [4]), 42.9 ± 4.3%; with PVY [3], 29 ± 1.6%.
As for `COc1cccc(/C=C2\Oc3cc(OCC(=O)NS(=O)(=O)c4ccc(Cl)cc4)ccc3C2=O)c1OC` [D17], the pest or weed control at 500 µg/mL in the assay with PVY [1] is 40.7 ± 2.3%; with PVY [2] (setting [4]), 60 to 80%; in the assay with PVY [3], 46.2 ± 1.4%. In addition, the EC50 with PVY [2] amounted to 142 ± 15.2 µg/mL (≈ 267 µM).
For the compound `COc1ccc(/C=C2\Oc3cc(OCC(=O)NS(=O)(=O)c4ccc(Cl)cc4)ccc3C2=O)cc1OC` [D18], the values for the pest or weed control at 500 µg/mL in the assay with PVY [1], in the assay with PVY [2] (setting [4]) and in the assay on PVY [3] were 38.2 ± 3%, 56.8 ± 2.8% and 25.5 ± 4%, respectively.
Take `COc1cc(/C=C2\Oc3cc(OCC(=O)NS(=O)(=O)c4ccc(Cl)cc4)ccc3C2=O)cc(OC)c1` [D19]: the pest or weed control at 500 µg/mL is 35.7 ± 3.8% in the assay on PVY [1], 46 ± 3% in the assay with PVY [2] (setting [4]) and 36.4 ± 5.6% in the assay with PVY [3].
The corresponding values for `COc1cccc(/C=C2\Oc3cc(OCC(=O)NS(=O)(=O)c4ccccc4)ccc3C2=O)c1OC` [D20] are 31.3 ± 3.8%, 64.7 ± 3.4% and 34.9 ± 4.9%.
As to `COc1cc(/C=C2\Oc3cc(OCC(=O)NS(=O)(=O)c4ccc(Br)cc4)ccc3C2=O)cc(OC)c1` [D21], the pest or weed control at 500 µg/mL in the assay on PVY [1] was 22.7 ± 1.2%; in the assay on PVY [2] (setting [4]) it was 50.5 ± 1.6%; in the assay with PVY [3], 33 ± 3.9%.
The corresponding values for `COc1ccc(/C=C2\Oc3cc(OCC(=O)NS(=O)(=O)c4ccc(Br)cc4)ccc3C2=O)cc1OC` [D22] are 28.1 ± 2.3%, 52 ± 3% and 36.2 ± 1.5%.
The like results for `COc1ccc(/C=C2\Oc3cc(OCC(=O)NS(=O)(=O)c4ccccc4)ccc3C2=O)cc1OC` [D23] were, in that order, 33.4 ± 3.9%, 45.4 ± 1.1% and 35.3 ± 1.5%.
As to `COc1cc(/C=C2\Oc3cc(OCC(=O)NS(=O)(=O)c4ccccc4)ccc3C2=O)cc(OC)c1` [D24], the pest or weed control at 500 µg/mL in the assay on PVY [1] is 31 ± 3%; in the assay on PVY [2] (setting [4]), 60 to 80%; with PVY [3] it was 50.1 ± 1.8%. Further, in the assay with PVY [2], the EC50 was determined as 147 ± 11 µg/mL (≈ 297 µM).
With `COc1cccc(/C=C2\Oc3cc(OCC(=O)NS(=O)(=O)c4ccc(Br)cc4)ccc3C2=O)c1OC` [D25], the pest or weed control at 500 µg/mL turned out to be 41.9 ± 2.6% in the assay with PVY [1], 55.4 ± 2% in the assay with PVY [2] (setting [4]) and 35.9 ± 3.9% in the assay on PVY [3].
The like results for `COc1ccc(/C=C2\Oc3cc(OCC(=O)NS(=O)(=O)c4ccc(F)cc4)ccc3C2=O)cc1OC` [D26] were, in that order, 40.2 ± 5%, 55.3 ± 3% and 32.4 ± 1.7%.
The corresponding values for `COc1cccc(/C=C2\Oc3cc(OCC(=O)NS(=O)(=O)c4ccc(F)cc4)ccc3C2=O)c1OC` [D27] are 33.9 ± 2.3%, 60 to 80% and 45.1 ± 3.7%.
For the compound `COc1cc(/C=C2\Oc3cc(OCC(=O)NS(=O)(=O)c4ccc(F)cc4)ccc3C2=O)cc(OC)c1` [D28], the pest or weed control at 500 µg/mL with PVY [1] worked out at 32.5 ± 4.4%; with PVY [2] (setting [4]) it was 56.4 ± 4.7%; in the assay with PVY [3] it was 39.9 ± 2.9%.
The corresponding values for `COc1cc(OC)c(/C=C2\Oc3cc(OCC(=O)NS(=O)(=O)c4ccc(F)cc4)ccc3C2=O)c(OC)c1` [D29] are 37.9 ± 2.7%, 57.1 ± 4.3% and 36.7 ± 4%.
Turning to `COc1ccc(OC)c(/C=C2\Oc3cc(OCC(=O)NS(=O)(=O)c4ccccc4)ccc3C2=O)c1` [D30], the pest or weed control at 500 µg/mL is 34.2 ± 3.3% in the assay on PVY [1], 49.4 ± 3.4% with PVY [2] (setting [4]) and 33.3 ± 1.4% in the assay with PVY [3].
Consider `COc1cc(OC)c(/C=C2\Oc3cc(OCC(=O)NS(=O)(=O)c4ccccc4)ccc3C2=O)c(OC)c1` [D31], for which the pest or weed control at 500 µg/mL in the assay on PVY [1] was found to be 26.3 ± 2.6%; with PVY [2] (setting [4]) it was 57.4 ± 4.3%; in the assay on PVY [3], 42.9 ± 2.4%.
The like results for `COc1cc(OC)c(/C=C2\Oc3cc(OCC(=O)NS(=O)(=O)c4ccc(Cl)cc4)ccc3C2=O)c(OC)c1` [D32] were, in that order, 33.3 ± 2.6%, 53.8 ± 3% and 43.4 ± 2.3%.
With `COc1ccc(OC)c(/C=C2\Oc3cc(OCC(=O)NS(=O)(=O)c4ccc(Cl)cc4)ccc3C2=O)c1` [D33], the pest or weed control at 500 µg/mL is 39.7 ± 2.7% in the assay on PVY [1], 51.1 ± 3.9% with PVY [2] (setting [4]) and 41.2 ± 2.4% in the assay with PVY [3].
The corresponding values for `COc1ccc(OC)c(/C=C2\Oc3cc(OCC(=O)NS(=O)(=O)c4ccc(F)cc4)ccc3C2=O)c1` [D34] are 36 ± 1.6%, 46.9 ± 2.4% and 39.9 ± 3.7%.
The corresponding values for `COc1ccccc1/C=C1\Oc2cc(OCC(=O)NS(=O)(=O)c3cccc(C(F)(F)F)c3)ccc2C1=O` [D35] are 39.9 ± 2.8%, 46.6 ± 2% and 37.6 ± 1.8%.
Turning to `COc1ccc(/C=C2\Oc3cc(OCC(=O)NS(=O)(=O)c4cccc(C(F)(F)F)c4)ccc3C2=O)cc1` [D36], the pest or weed control at 500 µg/mL worked out at 33.9 ± 4.1% in the assay with PVY [1], 55.1 ± 2.8% in the assay on PVY [2] (setting [4]) and 36.8 ± 2.2% with PVY [3].
The corresponding values for `COc1ccc(/C=C2\Oc3cc(OCC(=O)NS(=O)(=O)c4cccc(C(F)(F)F)c4)ccc3C2=O)c(OC)c1` [D37] are 29.8 ± 2.7%, 43.8 ± 3.2% and 38.2 ± 2.2%.
The corresponding values for `COc1ccc(/C=C2\Oc3cc(OCC(=O)NS(=O)(=O)c4ccc(C(F)(F)F)cc4)ccc3C2=O)c(OC)c1` [D38] are 28 ± 4%, 33.3 ± 3.1% and 36.7 ± 3.5%.
With `CNCC(=O)N[C@@H](CO)C(=O)N[C@H]1[C@H](O)[C@@H](O)[C@H](n2ccc(N)nc2=O)O[C@@H]1C(N)=O` [NNM, ningnanmycin, reference compound], the pest or weed control at 500 µg/mL with PVY [1] came to 49.1 ± 1.8%; in the assay with PVY [2] (read-out: Inactivating effect (%)) it was 83.3 ± 1.2%; in the assay with PVY [3], 49 ± 3.9%. Besides, in the assay on PVY [2], the EC50 is 54.3 ± 2.2 µg/mL (≈ 122 µM).

The values are drawn from paper PMC12663734, “Sulfonamine-containing aurone derivatives act as inhibitors of intercellular movement of potato virus Y” (iScience, 2025).
